From US20180110777A1, “METHOD FOR REGULATION OF TELOMERE LENGTH” (The Johns Hopkins University, priority 2015, published 2018)
Values joined by “and” are separate entries in the source; they are usually repeats but may differ in a detail not shown here. Equal values may be shown once. “Also recorded” adds a separate entry of the source.

Columns and labels:
Assay type in all cases: cell-based, mouse
SL13 cells = experiment: ADDIT assay (addition of de novo initiated telomeres; modified STELA with PacBio sequencing or Southern blot); details: for de novo telomere addition / telomere elongation in ADDIT assay (in words): PacBio sequencing of STELA products, compared to controls; for percentage of CCS reads with de novo telomere addition (mean and SEM): SL13 cells pretreated prior to doxycycline, 10 μM KU55933, 3 μM Olaparib, 100 nM siATM, multiple experiments
Description: To critically access the role of ATM, as well as other potential telomere length regulators, an assay was developed that measures telomere repeat addition in cells over 48 hr. CAST/EiJ mouse fibroblast cell line was engineered to (SL13) contain a conditional mTR allele and a modified chromosome 4 (chr4) with an internal 480 bp telomere ‘seed’ sequence followed by a unique I-Sce1 endonuclease cut site (FIG. 5 and see Experimental Procedures). The internal telomere ‘seed’ sequence can be conditionally exposed by I-Sce1 endonuclease cleavage (FIG. 1A) and then be elongated by telomerase in a manner similar to de novo telomere addition shown to occur in yeast (Diede and Gottschling, 1999, Cell 99, 723-733).
To better detect the telomere elongation, the single telomere length analysis (STELA) assay was modified (Baird et al., 2004, Hum Mol Genet 13, 1515-1524), to measure telomere length at the in vivo cut chr4. The linker, ‘telorette’, was ligated to the telomere and PCR amplified the telomere using the ‘teltail’ primer and an internal primer in the hygromycin resistance (HYG) sequence on the engineered chromosome (FIG. 1B). To determine the un-extended cut chromosome length in vitro, a different linker was designed, ‘IScerette’, which anneals to the 4-nt 3′ overhang created by the I-Sce1 endonuclease (FIG. 1B). PCR using the forward primers, F1 or F2, and the teltail generated products of predicted size on a Southern blot (data not shown).
To further verify telomere addition had occurred, the PCR products were sequenced with Pacific Biosciences (PacBio®) sequencing. PacBio® produces long sequence reads that allowed us to determine telomere length. While sequencing errors, predominantly point insertions and deletions, occurred as expected, the telomere repeats were easily recognizable. To assure products were full length, the PacBio® reads were filtered to examine only those that had the unique HYG sequence followed by the seed telomere repeat sequence and also had the ‘teltail’ primer sequence (FIG. 6). […] The I-Sce1 site is shown boxed (FIG. 1C). Three regions of variant telomere repeats were noted, evident as darker stripes in the aligned reads, that were present in the original SL13 clone, and served as useful sequence reference points (FIG. 1C). If there were degradation past these variants and then new TTAGGG (SEQ ID NO: 100) repeat synthesis in vivo, these landmarks would be removed.
The sequence length distribution in the ADDIT assay represents telomere elongation, incomplete telomere replication and in vivo end resection (as well as PacBio® sequencing errors).
Cell lines were grown in DMEM (Gibco) supplemented with 1% Penicillin/Streptomycin/Glutamine (PSG) and 10% heat inactivated FBS (Invitrogen). SL13 cells were grown in DMEM (Gibco) supplemented with 1% PSG and 10% Tet system approved FBS (Clontech, #631107). Cells were treated with ATM inhibitor KU55933 (R&D Systems, #3544), ATR inhibitor VE821 (Selleckchem, #S8007) or PARP1 inhibitor Olaparib (Selleckchem, #1060) at indicated concentrations or DMSO as a control. For the ADDIT assay, SL13 cells were treated with final concentration 2 μg/ml of doxycycline for typically 48 hr or as indicated.
The original STELA protocol used for human cells (Baird et al., 2004, Hum Mol Genet 13, 1515-1524) was modified to measure telomere lengths on the cut end of chr4 in SL13 cells. Briefly, genomic DNA was extracted using Puregene Core Kit A™ (Qiagen). 4 μg of genomic DNA was digested with Sph1 (NEB) and later diluted to 10 ng/μl in water. For the in vitro IScerette sample, genomic DNA was digested with SphI and I-SceI (NEB) prior to ligation. The ligation was carried out at 35° C. for at least 12 hr in a volume of 10 μl containing 10 ng of digested genomic DNA, 0.9 μM of telorette linkers or IScerette linker and 0.5 U of T4 DNA ligase (NEB) in 1×T4 ligation buffer. […]

ATM = experiment: Western blot of ATM signaling (phospho-Kap1, phospho-ATM)
Description: (§1) To probe the role of ATM, the ADDIT assay was used in cells treated with the ATM specific inhibitor KU55933 (as described in Hickson et al., 2004, Cancer Research 64, 9152-9159) or with siRNA to ATM. To confirm the inhibition of ATM, the phosphorylation level was examined of the ATM substrate Kap1 and, as a control, an ATR kinase substrate Chk1 by western blot. Cultured cells were pretreated with KU55933, siA™ or DMSO control and then exposed to camptothecin (CPT), a DNA damaging agent.
To further probe the role of ATM in telomere length, ATM was activated in cultured cells. […] PARP is an essential enzyme involved in recognition and repair of DNA breaks. […] Similar to wild-type control, the most common class of telomere addition was Class 3 that creates the most complementarity between the 3′ end and the mTR sequence (Table 3). To examine whether this stimulation of telomere elongation acts through ATM, epistasis was examined by treating cells with both Olaparib and KU55933.
To detect phospho-proteins, 1× lysis buffer made of final concentration of 1×RIPA™ (Cell Signaling, #98016S), 1× protease inhibitor cocktail, 1× PhosSTOP™ (Roche, 4906845001) was added directly to cells on the dish after washing with PBS. Protein concentration was measured with a BCA protein assay kit (Thermo, #23227). Typically 10 μg of protein from each sample was applied to SDS-PAGE gels (Biorad, #456-1084) and transferred to nitrocellulose membranes in transfer buffer. After blocking with the Odyssey™ blocking buffer (LI-COR, #927-40000), membranes were incubated at 4° C. overnight or 1 hr at RT with the following primary antibodies: anti-phospho-Kap1 (Bethyl Lab, #A300-767A); anti-phospho-CHK1 (Cell Signaling, #2348S); anti-phospho-ATM (Millipore, #05-740); anti-HA (Santa Cruz, #sc-7392); anti-Actin (Santa Cruz, #sc-1616); anti-PAR (Trevigen, #4335-MC-100). […] Band intensities were quantified using the Odyssey™ software (LI-COR) and normalized to Actin levels. […]

[1] = test system: ATR kinase substrate Chk1; experiment: Western blot of ATR kinase substrate Chk1 phosphorylation; details: cells pretreated, then exposed to camptothecin (CPT)
Description: as §1
To detect phospho-proteins, 1× lysis buffer made of final concentration of 1×RIPA™ (Cell Signaling, #98016S), 1× protease inhibitor cocktail, 1× PhosSTOP™ (Roche, 4906845001) was added directly to cells on the dish after washing with PBS. Protein concentration was measured with a BCA protein assay kit (Thermo, #23227). Typically 10 μg of protein from each sample was applied to SDS-PAGE gels (Biorad, #456-1084) and transferred to nitrocellulose membranes in transfer buffer. […] Band intensities were quantified using the Odyssey™ software (LI-COR) and normalized to Actin levels. […]

| Structure (SMILES) | de novo telomere addition / telomere elongation in ADDIT assay (in words) (SL13 cells) | percentage of CCS reads with de novo telomere addition (mean and SEM) (SL13 cells) | phosphorylation of ATM-S1981 (ATM; Olaparib-treated cells) | Kap1 phosphorylation in response to PARP1 inhibition (ATM; compared to DMSO-treated control cells) | Kap1-S824 phosphorylation (ATM; cells pretreated, then exposed to camptothecin (CPT)) | Chk1-S345 phosphorylation [1] |
| --- | --- | --- | --- | --- | --- | --- |
| O=C(c1cc(Cc2n[nH]c(=O)c3ccccc23)ccc1F)N1CCN(C(=O)C2CC2)CC1 [Olaparib] | small increase in telomere elongation | 26% and 26.1±1.19% | increased phosphorylation of ATM-S1981 | increased ATM phosphorylation of Kap1; also recorded: increased level of Kap1 phosphorylation |  |  |
| O=c1cc(-c2cccc3c2Sc2ccccc2S3)oc(N2CCOCC2)c1 [KU55933] | significantly fewer telomere elongation products | 12.45±1.16% |  |  | blocked Kap1 phosphorylation | not Chk1 phosphorylation |
